In this test the test system is GL261 glioblastoma cells. As to the kind of experiment: Colony survival measurement, GL261 glioblastoma cells. The format is cell-based, murine. As for the experimental part: GL261 glioblastoma cells were incubated with different radioactivity concentrations of ^225Ac-DOTA dendrimer; cells were plated for colony survival measurement.
Cells, plated at 500,000 cells per well, were plated in 6-well plates and were allowed to adhere overnight before being incubated with varying concentrations of radioactivity (4.63, 9.25, 18.5, 37, 74 kBq/mL) at pH 7.4 for a duration of 6 hours. In case of the combination runs with temozolomide (TMZ), the free drug incubation at respective concentrations, was performed simultaneously with the radioactivity for a duration of 6 hours. […] Once cell colonies were observed (approximately 6 weeks for the cancer cells and approximately 3 weeks for the macrophages), the media was removed, dishes were washed with water, and the colonies were fixed and stained using 6% (w/v) glutaraldehyde and 0.05% (w/v) Crystal violet, respectively, following which they were counted using a colony counter pen. The number of colonies counted for each of the treatment groups was then normalized by the number of colonies from the control group to obtain the survival fraction, while accounting for the plating efficiency. The same procedure was used to obtain the survival fractions for free chemotherapeutic treatment, replacing the radioactivity concentrations with free chemotherapeutic concentration while incubating the cells. […]

For `O=C([O-])CN1CCN(CC(=O)[O-])CCN(CC(=O)[O-])CCN(CC(=O)[O-])CC1.[225Ac+3]` [^225Ac-DOTA], the “colony survival fraction of GL261 cells versus resting and activated BV2 macrophages” value (FIG. 8 left) is given as “significantly lower”. In addition, the “GL261 colony survival fraction in the presence of TMZ versus without TMZ” value (TMZ incubated simultaneously for 6 hours, at 2.1-3.7 times less than its IC50, FIG. 10 left, FIG. 12) is reported as “lower”.

The record behind these values is patent publication US20250340701A1, “DENDRIMER-DELIVERED ALPHA-PARTICLE RADIOTHERAPY FOR TREATMENT OF GLIOBLASTOMA AND OTHER CANCERS IN THE BRAIN” (priority 2022, published 2025).
